# Patent US10736923B2, “Methods and compositions for generating chondrocyte lineage cells and/or cartilage like tissue” (UNIVERSITY HEALTH NETWORK, priority 2013, dated 2020)
# Legend:
# Type in all cases: cell-based, human
# [1] = tested on: day 15 mesoderm populations; assay: Micromass assay of day 15 mesoderm populations
# Method: FIG. 2. Characterization of paraxial mesoderm derived from hPSCs. Flow cytometric analysis of day 5 mesoderm treated with no additional factors (0 DM, no FGF), FGF, 4 μM DM, or 4 μM DM+FGF. Day 5 profiles depict KDR and PDGFRa expression, a double-positive population (gated) indicates mesoderm that has cardiac potential (20). Treatment with FGF results in less PDGFRa expression on day 5. (B) Expression of cell surface markers CD73, CD105, and PDGFR-beta on mesoderm populations on day 15 of differentiation. […] Experimental cell treatments during day 4 to day 6 include the combination of Dorsomorphin, bFGF, TGFbeta inhibitor (SB431542) in the presence or absence of the wnt pathway inhibitor IWP2. Flow cytometric analyses of CD73 and CD105, on day 15 mesoderm populations derived as indicated. (D) Gene expression analyses of day 15 mesoderm populations derived in indicated factors. Nkx2.5 is a cardiac transcription factor, Meox1 and Nkx3.2 are paraxial mesoderm and somite transcription factors. (E) Micrographs depicting 1 day old micromasses and 1 week old micromasses derived from day 15 mesoderm populations as indicated. (F) Flow cytometric analysis of cardiac troponin T (cTnT) expression in 1 week old micromasses derived from day 15 mesoderms as indicated. […] Previous studies have shown that TGFBeta/BMP signaling is required to generate chondrocyte progenitors from paraxial mesoderm. […] Following 10 days of TGFb3 treatment (day 25 total), cultures could be switched to media containing BMP4 or maintained in TGFb3 (stage 4) in order to specify subsets of chondrocytes (articular/non-hypertrophic or growth plate/hypertrophic). To determine the chondrocyte potential of the day 15 mesoderm populations, the cells were plated at high cell density in a 20 microliter volume on tissue culture treated Petri dishes for an hour (micromass) and then the ‘spot’ was submerged/covered with media. In our initial studies, the cells were ‘spotted’ in a media containing 2% fetal bovine serum. […]
# [2] = tested on: primitive streak-like mesoderm population; assay: Paraxial mesoderm specification in monolayer culture, flow cytometry of cell surface markers
# Method: FIG. 2. Characterization of paraxial mesoderm derived from hPSCs. Flow cytometric analysis of day 5 mesoderm treated with no additional factors (0 DM, no FGF), FGF, 4 μM DM, or 4 μM DM+FGF. Day 5 profiles depict KDR and PDGFRa expression, a double-positive population (gated) indicates mesoderm that has cardiac potential (20). Treatment with FGF results in less PDGFRa expression on day 5. (B) Expression of cell surface markers CD73, CD105, and PDGFR-beta on mesoderm populations on day 15 of differentiation. […] Experimental cell treatments during day 4 to day 6 include the combination of Dorsomorphin, bFGF, TGFbeta inhibitor (SB431542) in the presence or absence of the wnt pathway inhibitor IWP2. Flow cytometric analyses of CD73 and CD105, on day 15 mesoderm populations derived as indicated. (D) Gene expression analyses of day 15 mesoderm populations derived in indicated factors. Nkx2.5 is a cardiac transcription factor, Meox1 and Nkx3.2 are paraxial mesoderm and somite transcription factors. (E) Micrographs depicting 1 day old micromasses and 1 week old micromasses derived from day 15 mesoderm populations as indicated. (F) Flow cytometric analysis of cardiac troponin T (cTnT) expression in 1 week old micromasses derived from day 15 mesoderms as indicated. […] To generate chondrocytes, it is essential to first specify this PS population to a paraxial mesoderm fate. Previous studies have shown that mesoderm populations that express cell surface markers often found on mesenchymal stem cells, CD73 and CD105, have chondrogenic potential (Hwang, Kim et al. 2006). The expression of these two cell surface markers, as well as the expression of transcription factors Meox1 and Nkx3.2 combined with the lack of expression of Nkx2.5 to monitor the emergence of a paraxial mesoderm population was used. Previous experiments in the mouse ESC model system have shown the importance of inhibiting the BMP signaling pathway in the context of FGF signaling to prevent the emergence of cardiac mesoderm and promote the development of paraxial mesoderm (Craft, Ahmed et al. 2013). […] Very few cells in untreated mesoderm conditions expressed CD73 and CD105 (7.46%, FIG. 2B). […] The changes in expression of these surface markers were accompanied by the upregulation of paraxial genes Meox1 and Nkx3.2 (FIG. 2C). […] Thus, in some cell lines, the efficiency of paraxial mesoderm specification may be improved in the presence of a Wnt pathway antagonist immediately following the PS mesoderm induction phase.
# [3] = tested on: day 15 mesoderm populations; assay: Gene expression analyses of day 15 mesoderm populations
# Method: FIG. 2. Characterization of paraxial mesoderm derived from hPSCs. Flow cytometric analysis of day 5 mesoderm treated with no additional factors (0 DM, no FGF), FGF, 4 μM DM, or 4 μM DM+FGF. Day 5 profiles depict KDR and PDGFRa expression, a double-positive population (gated) indicates mesoderm that has cardiac potential (20). Treatment with FGF results in less PDGFRa expression on day 5. (B) Expression of cell surface markers CD73, CD105, and PDGFR-beta on mesoderm populations on day 15 of differentiation. […] Experimental cell treatments during day 4 to day 6 include the combination of Dorsomorphin, bFGF, TGFbeta inhibitor (SB431542) in the presence or absence of the wnt pathway inhibitor IWP2. Flow cytometric analyses of CD73 and CD105, on day 15 mesoderm populations derived as indicated. (D) Gene expression analyses of day 15 mesoderm populations derived in indicated factors. Nkx2.5 is a cardiac transcription factor, Meox1 and Nkx3.2 are paraxial mesoderm and somite transcription factors. (E) Micrographs depicting 1 day old micromasses and 1 week old micromasses derived from day 15 mesoderm populations as indicated. (F) Flow cytometric analysis of cardiac troponin T (cTnT) expression in 1 week old micromasses derived from day 15 mesoderms as indicated. […] To generate chondrocytes, it is essential to first specify this PS population to a paraxial mesoderm fate. […]
# [4] = tested on: hPSC-derived paraxial mesoderm; assay: Chondrocyte specification in micromass culture with TGFB3 or BMP4 (histology, scatter flow cytometry, qRT-PCR, immunostaining)
# Source text: FIG. 4. TGFB3 and BMP4 specify chondrocytes and cartilage-like tissues with articular cartilage and growth plate cartilage phenotypes. (A) Micrographs of 5 week old micromasses derived with TGFB3 or BMP4, 20× magnification. (B) Tissue histology (stained with toluidine blue) of 13 week cartilage tissues derived with TGFB3 or BMP4. […] (C) Flow cytometric analysis of forward and side cell scatter parameters of 3 week and 5 week old micromasses. Side scatter indicates cell granularity and forward cell scatter indicates cell size. (D) Comparison of hPSC-derived micromass tissues to fetal primary chondrocyte derived micromass tissues and the developing human fetal femur cartilage. Articular cartilage regions appear to have smaller cells in size compared to growth plate like regions, which contain cells which appear enlarged (hypertrophic). Cartilage tissues in micromass as well as in the fetal femur stain uniformly with the toluidine blue stain (images are pink/purple in color and indicate the presence of cartilage proteins). The BMP4-treated micromass tissues contain a large number of enlarged cells which is similar to the bottom panel of the fetal cartilage which represents a growth plate cartilage. TGFB3 treated micromass cultures contain fewer, if any, enlarged chondrocytes, and appear similar to the upper panel of the fetal cartilage which is the site of articular cartilage. (E) Micrograph using GDF5 instead of BMP4 to generate hypertrophic chondrocytes. (F) Histological analyses of cartilage tissues derived from hiPSCs stained with Toluidine blue after 12 weeks. (G,H) Immunohistochemical staining of hESC-derived cartilage tissues for type II Collagen (G, 8 week tissues), and lubricin (H, 12 week tissues).
# FIG. 5. Gene expression analyses of chondrocyte specification in the presence of TGFB3 or BMP4 during stages 3 and 4 of differentiation respectively. General chondrocyte genes Sox9 (A) and collagen 2 (B), hypertrophic genes collagen 10 (C), Runx2 (D), osterix (E) and alkaline phosphatase (F), articular cartilage associated genes lubricin (G) and cartilage intermediate layer protein 2 (CILP2) (H), interzone-related (joint progenitor) genes GDF5 (I), ERG (J) and Wnt9a (K). Expression is copy number relative to TBP (n=3 to 8 biological replicates) and is compared to primary fetal chondrocytes (aged 16 to 19 weeks, n=4), primary healthy adult articular chondrocytes (n=2), and growth plate-like chondrocytes isolated from the iliac crest of an adult (n=1). T15 Mesoderm indicates day 15 hESC-derived paraxial mesoderm (DM+FGF-treated). Error bars indicate s.e.m.
# FIG. 8. TGFβ1, TGFβ2, and TGFβ3 generated articular chondrocytes from hPSC-derived paraxial mesoderm. COL2A1, lubricin, and CILP2 gene expression after 12 weeks of micromass culture in the presence of TGF agonists as indicated (10 ng/ml). Values represent copy number mRNA relative to TBP. Error bars indicate s.e.m.
# Previous studies have shown that TGFBeta/BMP signaling is required to generate chondrocyte progenitors from paraxial mesoderm. […] Following 10 days of TGFb3 treatment (day 25 total), cultures could be switched to media containing BMP4 or maintained in TGFb3 (stage 4) in order to specify subsets of chondrocytes (articular/non-hypertrophic or growth plate/hypertrophic). To determine the chondrocyte potential of the day 15 mesoderm populations, the cells were plated at high cell density in a 20 microliter volume on tissue culture treated Petri dishes for an hour (micromass) and then the ‘spot’ was submerged/covered with media. In our initial studies, the cells were ‘spotted’ in a media containing 2% fetal bovine serum. However, this short serum exposure can be omitted with no effects on cartilage formation at later stages, making this protocol optionally serum-free. After 2 to 3 days, serum-free media containing TGFb3 is added to the culture to generate chondrocyte progenitors. […]
# fetal chondrocytes = assay: CD73 flow cytometry of fetal chondrocytes in micromass culture; settings: 9 to 10 weeks of micromass culture
# Source text: (§1) FIG. 6. CD73 is expressed by articular chondrocytes. Flow cytometric analyses of primary chondrocytes (A) Healthy adult articular chondrocytes and iliac crest GPC-like chondrocytes, (B) Primary fetal chondrocytes, primary (C) or passaged (passage (P)2, D) fetal chondrocytes after 9 to 10 weeks of micromass culture in the presence of TGFB3 or BMP4, and (E) hPSC-derived chondrocytes after 11 weeks derived in the presence of TGFB3 or BMP4. (F) Time course of CD73 and PDGFR-beta cells surface expression on T12 and T15 paraxial mesoderm populations, and micromass cultures treated with TGFB3 after 3 days, 10 days, and 2 weeks. (G) Time course of CD73 expression on TGFB3-treated micromasses after 3 days, 7 days, 10 days, and 2 to 5 weeks.
# (§2) Primary (P0) and passaged (P2) fetal chondrocytes can also be cultured in micromass with TGFB3 or BMP4, similar to how hPSC-derived cartilage tissues are formed. TGFB3-treated fetal P0-derived or fetal P2-derived cartilage tissues contain over 93% CD73 positive cells, while BMP4 treatment reduces the percentage of CD73+ cells to 70% and 61% respectively (FIG. 6C,D). CD73 expression is also expressed by over 98% of hPSC-derived cartilage tissues derived with TGFB3-treatment (FIG. 6E). The percentage of CD73+ cells is reduced to only about 57% of cells after BMP4-treatment. Thus, CD73 marks primary healthy adult ACs, a proportion of healthy fetal chondrocytes, fetal chondrocytes or passaged fetal chondrocytes cultured as micromasses in TGFB3, and TGFB3-treated articular chondrocyte-like cells derived from human PSCs.
# [5] = tested on: hPSC-derived chondrocytes; assay: CD73 flow cytometry of hPSC-derived cartilage tissues; settings: hPSC-derived cartilage tissues after 11 weeks
# Source text: as §1
# as §2, with “Thus, CD73 marks primary healthy adult ACs, a proportion of healthy fetal chondrocytes, fetal chondrocytes or passaged fetal chondrocytes cultured as micromasses in TGFB3, and TGFB3-treated articular chondrocyte-like cells derived from human PSCs.” left out
# [6] = 8- to 12-week old tissue, versus tissue maintained in TGFb3
substance,measurement,setting,value
"bFGF: basic fibroblast growth factor, FGF agonist",generation of cardiomyocytes (cTnT),[1]; 1 week of micromass culture,did not generate any cardiomyocytes
same,cartilage-like tissue formation,"[1]; after 4 weeks of micromass culture, treatment in monolayer phase",did not maintain a cartilage tissue phenotype
same,adherence and survival in micromass culture,[1]; first week of micromass culture,survived the first week of micromass culture as an adherent layer of cells
same,expression patterns of PDGFRa and KDR,"[2]; T5, versus untreated mesoderm, DM T4 to T6",did not change the PDGFRa/KDR population drastically
same,proportion of cells expressing CD73 and CD105,"[2]; day 15, FGF day 4 to day 15, DM T4-T6",52%
same,PDGF receptor beta expression on CD73-positive cells,[2]; day 15 monolayers,also expressed the PDGF receptor beta
same,Meox1 expression,[3],upregulation
same,Nkx3.2 expression,[3],upregulation
BMP4: Bone Morphogenetic Protein 4,"forward and side scatter of live cells (cell size, granularity)",[4]; 3 week and 5 week micromasses,larger forward scatter (FSC)
same,chondrocyte morphology,[4]; 5 week old micromasses,round with cobblestone-like appearance
same,COL10A1 expression,[4]; [6],significantly higher
same,RUNX2 expression,[4]; [6],significantly higher
same,SP7 expression,[4]; [6],significantly higher
same,alkaline phosphatase (ALP/ALPL) expression,[4]; [6],significantly higher
same,Lubricin protein (immunohistochemistry),[4]; 12 week micromass tissue,not
same,"tissue histology (toluidine blue), chondrocyte size","[4]; 13 week old tissues, GDF5 instead of BMP4",enlarged hypertrophic chondrocytes
same,cartilage tissue formation on direct plating of day 15 mesoderm,"[4]; direct plating into BMP4 containing media, no TGFB3 stimulation",non-adherent cell aggregates that did not form cartilage tissue
same,COL2A1 expression,"[4]; qRT-PCR, by 2 weeks of culture",upregulated
same,SOX9 expression,"[4]; qRT-PCR, by 2 weeks of culture",upregulated
same,CD73 positive cells,fetal chondrocytes; passaged (P2) fetal chondrocytes,61%
same,CD73 positive cells,fetal chondrocytes; primary (P0) fetal chondrocytes,70%
same,CD73 positive cells,[5],about 57%
